Measurements taken from patent publication US10940139B2, “Compounds that interact with the Ras superfamily for the treatment of cancers, inflammatory diseases, rasopathies, and fibrotic disease” (Shy Therapeutics LLC, priority 2017, dated 2021).

Each compound was assayed on MIA-PACA2 pancreatic cancer cell lines (assay: Cell proliferation assay, alternate assay conditions (DAPI fluorescence)). Conditions: Homo sapiens, MIA PaCa-2; * = tested at 10 μM, alternate conditions, MIA-PACA2.
Format: cell-based
Protocol: Cell lines: Tumor-derived pancreatic cancer cell lines MIA-PACA2 were purchased from ATCC and grown in complete DMEM-High Glucose medium supplemented with penicillin (100 U/mL), streptomycin (100 μg/mL), and 10% heat-inactivated FBS at 37° C. in a humidified incubator with 5% CO2.
Method: Cells are plated at 4000 cells/well density in 96-wells plate. The next day tested small molecules are added to the cells in the final concentration of 10 μM in the presence of 0.3% DMSO and 10% FBS. After small molecules addition, cells are incubated for 4 days at 37° C. in a humidified incubator with 5% CO2. For IC50 value determination, serial dilutions of compounds were added to cells under the same conditions.
Assay: At the end of the incubation period, cell cultures are fixed with a 50-50 mixture (v/v) acetone-methanol for 10 minutes at −20° C., followed by rehydration in PBS for 10 minutes at room temperature. After rehydration, cells are stained with DAPI (1 μg/ml) in PBS for 10 minutes at room temperature, followed by 3 washes with PBS. After staining, DAPI fluorescence is recorded (358 nm excitation/461 nm emission) with the 96-well plate reader Molecular Devices Spectramax M3; degree of small mole-cule-dependent proliferation inhibition is calculated from raw data assuming No Serum cells value as 100%.

| SMILES | inhibition at 10 µM [%] |
| --- | --- |
| COc1nc(-c2ccccn2)nc2c(-c3cccc(O)n3)csc12 | 76 to 100 |
| Cc1sc2c(O)nc(-c3nccn3C)nc2c1-c1ccc(OCC(C)C)nc1 [drawing 1902] | 76 to 100 |
| O=C(NCCc1ccncn1)c1csc2nc(-c3ccccn3)nc(N3CCOCC3)c12 [drawing 1796] | 1 to 25 |
| COCCNc1nc(-c2ccccn2)nc2c1c(-c1ccccc1)nn2-c1ccccn1 [drawing 1840] | 76 to 100 |
| COCCNc1nc(-c2nccn2C)nc2sc(-c3ccccc3)c(-c3ccncc3)c12 [drawing 1898] | 76 to 100 |
| Cn1ccnc1-c1nc(O)c2scc(-c3ccccc3Cl)c2n1 [drawing 1917] | 76 to 100 |
| Cc1sc2c(O)nc(-c3ccccn3)nc2c1-c1ccncc1 [drawing 1806] | 76 to 100 |
| CC(C)Oc1ccc(-c2csc3c(O)nc(-c4nccn4C)nc23)cc1F [drawing 1911] | 76 to 100 |
| CCOCCOc1nc(-c2nccn2C)nc2sc(-c3ccccc3)c(-c3ccccc3)c12 [drawing 1874] | 76 to 100 |
| COCC(C)Nc1nc(-c2ccccn2)nc(C(=O)NCCCc2c[nH]cn2)c1Oc1ccccc1 (stereo not shown) [drawing 1852] | 76 to 100 |
| CN(C)CCOc1cccc(-c2csc3c(O)nc(-c4ccccn4)nc23)c1 [drawing 1798] | 76 to 100 |
| O=C(c1csc2c(O)nc(-c3ccccn3)nc12)N1CCNC(c2ccc(Cl)cc2)C1 (stereo not shown) [drawing 1827] | 76 to 100 |
| COCCNc1nc(-c2nccn2C)nc2sc(C)c(-c3ccccc3)c12 [drawing 1886] | 76 to 100 |
| COc1nc(-c2ccccn2)nc2c1c(-c1ccccc1)nn2-c1ccccn1 [drawing 1842] | 76 to 100 |
| COCCNc1nc(-c2nccn2C)nc2sc(-c3ccccc3)c(-c3ccccc3)c12 [drawing 1837] | 76 to 100 |
| Cc1sc2c(O)nc(-c3nccn3C)nc2c1-c1ccccc1Cl [drawing 1904] | 76 to 100 |
| Nc1cccc(-c2csc3c(O)nc(-c4ccccn4)nc23)n1 [drawing 1816] | 76 to 100 |
| COc1ccc(-c2c(-c3ccccc3)sc3c(O)nc(-c4nccn4C)nc23)cn1 [drawing 1895] | 76 to 100 |
| Oc1nc(-c2ccccn2)nc2c(C3CCCCC3)csc12 [drawing 1811] | 76 to 100 |
| CC(C)OCCNc1nc(-c2nccn2C)nc2sc(-c3ccccc3)c(-c3ccccc3)c12 [drawing 1869] | 76 to 100 |
| Cc1sc2c(O)nc(-c3ccccn3)nc2c1C(=O)N1CCN(c2ccccc2)CC1C (stereo not shown) [drawing 1808] | 76 to 100 |
| COCCNc1nc(-c2cn(C)cn2)nc2sc(C)c(-c3ccccc3)c12 [drawing 1887] | 76 to 100 |
| COCCNc1nc(-c2cn(C)cn2)nc2sc(-c3ccncc3)c(-c3ccccc3)c12 [drawing 1832] | 76 to 100 |
| Cn1ccnc1-c1nc(NCCCO)c2c(-c3ccccc3)c(-c3ccccc3)sc2n1 [drawing 1881] | 76 to 100 |
| CC(C)c1nn(C)cc1-c1csc2c(O)nc(-c3ccccn3)nc12 [drawing 1797] | 76 to 100 |

| SMILES | inhibition at 10 µM [%] |
| --- | --- |
| COc1nc(-c2ccccn2)nc(Oc2cccc(C(F)(F)F)c2)c1O [drawing 1867] | 1 to 25 |
| COCCNc1nc(-c2ccncn2)nc2sc(-c3ccccc3)c(-c3ccccc3)c12 [drawing 1876] | 51 to 75 |
| Nc1nc(-c2ccccn2)nc(C(=O)NCCc2ccncc2)c1Oc1ccccc1 [drawing 1853] | 76 to 100 |
| COCCNc1nc(-c2cn(C)cn2)nc2sc(-c3ccccc3)c(-c3ccccc3)c12 [drawing 1885] | 76 to 100 |
| Oc1nc(-c2ccccn2)nc2cc(-c3ccncc3)sc12 [drawing 1863] | 76 to 100 |
| Oc1nc(-c2ccccn2)nc2c(-c3cc(CN4CCCC4)ccc3F)csc12 [drawing 1799] | 76 to 100 |
| COc1cnc(CNC(=O)c2sc3c(O)nc(-c4ccccn4)nc3c2C)[nH]c1=O [drawing 1826] | 0 |
| COCCN(C)c1nc(-c2nccn2C)nc2sc(-c3ccccc3)c(-c3ccccc3)c12 [drawing 1868] | 76 to 100 |
| Cc1sc2c(O)nc(-c3nccn3C)nc2c1-c1ccc(F)cc1F [drawing 1923] | 76 to 100 |
| COc1cnc(CNC(=O)c2csc3nc(-c4ccccn4)nc(N)c23)[nH]c1=O [drawing 1819] | 0 |
| Oc1nc(-c2ccccn2)nc2c(-c3cncc(C(F)F)c3)csc12 [drawing 1804] | 76 to 100 |
| Oc1nc(-c2ccccn2)nc2c(-c3ccccc3)c(-c3ccncc3)sc12 [drawing 1850] | 76 to 100 |
| COc1nc(-c2cn(C)cn2)nc2sc(-c3ccncc3)c(-c3ccccc3)c12 [drawing 1833] | 76 to 100 |
| COc1nc(-c2ccccn2)nc(Oc2cccc(C(F)(F)F)c2)c1OC [drawing 1854] | 76 to 100 |
| COCCNc1nc(-c2nccn2C)nc2sc(-c3ccncc3)c(-c3ccccc3)c12 [drawing 1884] | 76 to 100 |
| Cn1ccnc1-c1nc(NCCOC2CC2)c2c(-c3ccccc3)c(-c3ccccc3)sc2n1 [drawing 1878] | 76 to 100 |
| COCCNc1nc(-c2nccn2C)nc2sc(-c3ccccc3)c(-c3ccccn3)c12 [drawing 1924] | 76 to 100 |
| Cc1sc2c(O)nc(-c3ccccn3)nc2c1C(=O)N1CCN(c2ccccc2)CC1 [drawing 1807] | 76 to 100 |
| COc1ccc(CCC(=O)Nc2nc(-c3ccccn3)nc3sccc23)cn1 [drawing 1805] | 76 to 100 |
| Cn1ccnc1-c1nc(O)c2sc(-c3ccccc3)c(-c3cccc(C(F)(F)F)c3)c2n1 [drawing 1894] | 25 to 50 |
| Oc1nc(-c2ccccn2)nc2c(-c3cncnc3)csc12 [drawing 1801] | 0 |
| Cn1cnc(-c2nc(O)c3scc(-c4cccc(C(F)(F)F)c4)c3n2)c1 [drawing 1906] | 76 to 100 |
| COC(=O)c1c(C)sc2c(O)nc(-c3ccccn3)nc12 [drawing 1810] | 25 to 50 |
| COc1cnc(-c2cn(C)cn2)nc1O [drawing 1814] | 1 to 25 |
| Oc1nc(-c2ccccn2)nc2c(CC3CNC3)csc12 [drawing 1821] | 25 to 50 |

| SMILES | inhibition at 10 µM [%] |
| --- | --- |
| COc1cnc(-c2cnc[nH]2)nc1O [drawing 1818] | 0 |
| Cn1ccnc1-c1nc(NCCOC(F)(F)F)c2c(-c3ccccc3)c(-c3ccccc3)sc2n1 [drawing 1870] | 76 to 100 |
| OCC1(c2ccc(-c3nc(-c4ccccn4)nc(-c4ccc(C5(CO)CC5)cc4)c3Oc3ccccc3)cc2)CC1 [drawing 1834] | 76 to 100 |
| COCCNc1nc(-c2ccccn2)nc2sc(-c3ccccc3)c(-c3ccccn3)c12 [drawing 1922] | 76 to 100 |
| COC1CCN(c2nc(-c3nccn3C)nc3sc(-c4ccccc4)c(-c4ccccc4)c23)C1 (stereo not shown) [drawing 1873] | 76 to 100 |
| COc1ccc(-c2cc3nc(-c4ccccn4)nc(O)c3s2)cc1 [drawing 1865] | 76 to 100 |
| COc1ccc(-c2c(C)sc3c(O)nc(-c4nccn4C)nc23)cn1 [drawing 1903] | 25 to 50 |
| Cc1c(-c2csc3c(O)nc(-c4ccccn4)nc23)cnn1C [drawing 1802] | 76 to 100 |
| Oc1nc(-c2ccccn2)nc2c(Br)c(-c3ccccc3)sc12 [drawing 1855] | 76 to 100 |
| Cn1ccnc1-c1nc(O)c2c(-c3ccccc3)c(-c3ccccc3)sc2n1 [drawing 1838] | 76 to 100 |
| Cc1nn(C(C)C)cc1-c1csc2c(O)nc(-c3ccccn3)nc12 [drawing 1803] | 76 to 100 |
| COCCNc1nc(-c2nccn2C)nc2sc(-c3ccccc3Cl)c(-c3ccccc3)c12 [drawing 1883] | 76 to 100 |
| Cn1ccnc1-c1nc(O)c2scc(-c3ccc(F)cc3F)c2n1 [drawing 1918] | 76 to 100 |
| CCN(CC)CCOc1nc(-c2nccn2C)nc2sc(-c3ccccc3)c(-c3ccccc3)c12 [drawing 1875] | 76 to 100 |
| CC(C)COc1ccc(-c2csc3c(O)nc(-c4nccn4C)nc23)cn1 [drawing 1914] | 76 to 100 |
| Cc1sc2c(O)nc(-c3nccn3C)nc2c1-c1ccc(OC(C)C)c(F)c1 [drawing 1912] | 76 to 100 |
| COCCCNc1nc(-c2nccn2C)nc2sc(-c3ccccc3)c(-c3ccccc3)c12 [drawing 1872] | 76 to 100 |
| Oc1nc(-c2ccccn2)nc2cc(-c3ccc(-c4ccccc4)cc3)sc12 [drawing 1861] | 76 to 100 |
| COc1cnc(CNC(=O)c2cc3nc(-c4ccccn4)nc(O)c3s2)[nH]c1=O [drawing 1823] | 25 to 50 |
| COCCNc1nc(-c2nccn2C)nc2sc(-c3ccccc3)c(-c3ccccc3Cl)c12 [drawing 1882] | 76 to 100 |
| CC(C)Oc1ccc(-c2c(-c3ccccc3)sc3c(O)nc(-c4nccn4C)nc23)cc1F [drawing 1913] | 76 to 100 |
| COc1c(O)nc(-c2ccccn2)nc1Oc1cccc(C(F)(F)F)c1 [drawing 1859] | 76 to 100 |
| COc1ccc(-c2csc3c(O)nc(-c4nccn4C)nc23)cn1 [drawing 1915] | 76 to 100 |

Same assay, conditions: Homo sapiens, MIA PaCa-2; MIA-PACA2, same assay as the % inhibition (alternate conditions)

| IC50 [nM] | SMILES |
| --- | --- |
| 501 to 1000 | COCCNc1nc(-c2nccn2C)nc2sc(C)c(-c3ccccc3)c12 [drawing 1886] |
| 100 to 500 | Cc1sc2c(O)nc(-c3nccn3C)nc2c1-c1ccccc1Cl [drawing 1904] |
| 501 to 1000 | COc1ccc(-c2c(-c3ccccc3)sc3c(O)nc(-c4nccn4C)nc23)cn1 [drawing 1895] |
| > 1000 | COCCNc1nc(-c2cn(C)cn2)nc2sc(-c3ccccc3)c(-c3ccccc3)c12 [drawing 1885] |
| > 1000 | COCCN(C)c1nc(-c2nccn2C)nc2sc(-c3ccccc3)c(-c3ccccc3)c12 [drawing 1868] |
| 501 to 1000 | COCCNc1nc(-c2nccn2C)nc2sc(-c3ccccc3)c(-c3ccccn3)c12 [drawing 1924] |
| 501 to 1000 | COC1CCN(c2nc(-c3nccn3C)nc3sc(-c4ccccc4)c(-c4ccccc4)c23)C1 (stereo not shown) [drawing 1873] |
| 501 to 1000 | COCCNc1nc(-c2nccn2C)nc2sc(-c3ccccc3Cl)c(-c3ccccc3)c12 [drawing 1883] |
| 100 to 500 | CC(C)COc1ccc(-c2csc3c(O)nc(-c4nccn4C)nc23)cn1 [drawing 1914] |
| 501 to 1000 | COCCCNc1nc(-c2nccn2C)nc2sc(-c3ccccc3)c(-c3ccccc3)c12 [drawing 1872] |
| > 1000 | COCCNc1nc(-c2nccn2C)nc2sc(-c3ccccc3)c(-c3ccccc3Cl)c12 [drawing 1882] |

| SMILES | IC50 [nM] |
| --- | --- |
| COCCNc1nc(-c2nccn2C)nc2sc(-c3ccccc3)c(-c3ccccc3)c12 [drawing 1837] | 501 to 1000 |
